Reference: patent US7772252B2, “Heterocyclic substituted carbonyl derivatives and their use as dopamine D3 receptor ligands” (Aventis Pharmaceuticals Inc., priority 2001, dated 2010)

The compounds below were run against T1, cloned human dopamine D3 receptors (Homo sapiens, UniProt P35462) (assay: [N-Methyl-3H]Spiroperidol binding to cloned human dopamine D3 receptors). Settings: Table 2; D3 receptor binding; read-out: d3Ki.
T1 construct: expressed in transfected cells; membrane homogenate
In short: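 Radioligand displacement with [N-methyl-3H]spiroperidol was run on membranes from a high-expressing CHO clone carrying human D3. Membranes were prepared in 10% DMSO and stored at −80° C.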

T1 sequence (P35462 whole entry): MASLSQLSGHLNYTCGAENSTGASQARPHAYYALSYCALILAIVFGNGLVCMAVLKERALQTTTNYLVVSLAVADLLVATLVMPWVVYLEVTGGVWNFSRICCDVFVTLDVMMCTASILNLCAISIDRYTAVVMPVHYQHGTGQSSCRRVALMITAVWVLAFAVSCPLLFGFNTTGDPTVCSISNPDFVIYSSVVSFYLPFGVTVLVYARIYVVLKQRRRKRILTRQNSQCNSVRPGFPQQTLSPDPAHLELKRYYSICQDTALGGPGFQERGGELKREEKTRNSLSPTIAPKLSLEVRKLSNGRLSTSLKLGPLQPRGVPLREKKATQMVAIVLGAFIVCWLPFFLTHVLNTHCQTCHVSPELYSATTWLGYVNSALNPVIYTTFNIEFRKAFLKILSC

SMILES	Ki
O=C(CCCN1CCN(c2csc3cc(C(F)(F)F)ccc23)CC1)N1CCC(O)CC1 [compound 826812]	7.29 nM
CC1CCCN(C(=O)CCCN2CCN(c3csc4cc(C(F)(F)F)ccc34)CC2)C1 (stereo not drawn) [compound 826815]	31.7 nM
CC1CCN(C(=O)CCCN2CCN(c3csc4cc(C(F)(F)F)ccc34)CC2)CC1 [compound 826814]	10.3 nM
CC1CCCCN1C(=O)CCCN1CCN(c2csc3cc(C(F)(F)F)ccc23)CC1 (stereo not drawn) [compound 826813]	5.16 nM

Same assay, conditions: read-out: d3Ki

SMILES	Ki
O=C(CCCN1CCN(c2csc3cc(F)ccc23)CC1)NC1CCCCC1 [compound 826861]	2.89 nM
CCN(C(=O)CCCN1CCN(c2csc3cc(F)ccc23)CC1)C1CCCCC1 [compound 826849]	54.2 nM
O=C(CCCN1CCN(c2csc3cc(F)ccc23)CC1)NC1CCCC1 (racemic) [compound 826860]	3.48 nM
CN(C(=O)CCCN1CCN(c2csc3cc(C(F)(F)F)ccc23)CC1)C1CCCCC1 [compound 826808]	17.4 nM
CC1CCCN(C(=O)CCCN2CCN(c3csc4cc(F)ccc34)CC2)C1 (stereo not drawn) [compound 826855]	0.58 nM
CC1CCCC(NC(=O)CCCN2CCN(c3csc4cc(F)ccc34)CC2)C1 (stereo not drawn) [compound 826847]	1.01 nM
CC1CCCN1C(=O)CCCN1CCN(c2csc3cc(C(F)(F)F)ccc23)CC1 (stereo not drawn) [compound 826822]	2.79 nM
O=C(CCCN1CCN(c2csc3cc(F)ccc23)CC1)N(CCO)C1CCCCC1 [compound 826850]	18.8 nM
CCOC(=O)C1CCN(C(=O)CCCN2CCN(c3csc4cc(C(F)(F)F)ccc34)CC2)CC1 [compound 826811]	40.4 nM
CC1CCCC(NC(=O)CCCN2CCN(c3csc4cc(C(F)(F)F)ccc34)CC2)C1 (racemic) [compound 826807]	43 nM
CCOC(=O)[C@H]1CC[C@H](NC(=O)CCCN2CCN(c3csc4cc(F)ccc34)CC2)CC1 [compound 826845]	4.42 nM
O=C(CCCN1CCN(c2csc3cc(C(F)(F)F)ccc23)CC1)N(CCO)C1CCCCC1 [compound 826810]	86.7 nM
O=C(CCCN1CCN(c2csc3cc(F)ccc23)CC1)N1CCC(O)CC1 [compound 826852]	3.54 nM
CC1CC(C)CN(C(=O)CCCN2CCN(c3csc4cc(F)ccc34)CC2)C1 (stereo not drawn) [compound 826858]	3.71 nM
CN(C(=O)CCCN1CCN(c2csc3cc(F)ccc23)CC1)C1CCCCC1 [compound 826848]	4.35 nM
O=C(CCCN1CCN(c2csc3cc(F)ccc23)CC1)N1CCCC1 [compound 826859]	3.53 nM
O=C(CCCN1CCN(c2csc3cc(F)ccc23)CC1)N1CCC(N2CCCC2)CC1 [compound 826856]	1.8 nM
O=C(CCCN1CCN(c2csc3cc(C(F)(F)F)ccc23)CC1)N1CCC(N2CCCC2)CC1 [compound 826816]	26.3 nM
CC1CCCN1C(=O)CCCN1CCN(c2csc3cc(F)ccc23)CC1 (stereo not drawn) [compound 826862]	0.951 nM
CC1CC(C)CN(C(=O)CCCN2CCN(c3csc4cc(C(F)(F)F)ccc34)CC2)C1 (stereo not drawn) [compound 826818]	29.3 nM
O=C(CCCN1CCN(c2csc3cc(C(F)(F)F)ccc23)CC1)NC1CCCCC1 [compound 826821]	70.1 nM
CCOC(=O)C1CCN(C(=O)CCCN2CCN(c3csc4cc(F)ccc34)CC2)CC1 [compound 826851]	2.77 nM
CC1CCN(C(=O)CCCN2CCN(c3csc4cc(F)ccc34)CC2)CC1 [compound 826854]	0.116 nM
CC[C@H]1CC[C@H](NC(=O)CCCN2CCN(c3csc4cc(F)ccc34)CC2)CC1 [compound 826846]	17.6 nM
C[C@H]1CC[C@H](NC(=O)CCCN2CCN(c3csc4cc(F)ccc34)CC2)CC1 [compound 826844]	0.591 nM
O=C(CCCN1CCN(c2csc3cc(C(F)(F)F)ccc23)CC1)NC1CCCC1 [compound 826820]	52.8 nM
CN(C)C1CCN(C(=O)CCCN2CCN(c3csc4cc(C(F)(F)F)ccc34)CC2)C1 (stereo not drawn) [compound 826823]	19 nM
O=C(CCCN1CCN(c2csc3cc(C(F)(F)F)ccc23)CC1)N1CCCC1 [compound 826819]	11.6 nM
CC1CCCCN1C(=O)CCCN1CCN(c2csc3cc(F)ccc23)CC1 (stereo not drawn) [compound 826853]	0.128 nM
